Tested on: T-cellular lymphoma (EL4)
Assay: in vivo anti-tumor activity, s.c. T-cellular lymphoma EL4 in C57BL/10 mice
Design: species or system mouse
Experimental: Mice of inbred strain C57BL/10 were subcutaneously transplanted with T-cellular lymphoma (EL4). The tumor cells were injected in the lower half of the back of experimental animals in the amount of 1×10^5 cells/mouse. The cell transplantation day was marked day 0. Polymeric conjugates with hydrolytically released doxorubicin were then administered intraperitoneally either on day 1, 3, 5, 7 and 9 (protective regimen), on day 10, 12, 14, 16 and 18 or on day 12, 14, 16, 18 and 20 (therapeutic regimen). The daily dose of doxorubicin was 50 μg/mouse.

COc1cccc2c1C(=O)c1c(O)c3c(c(O)c1C2=O)C[C@@](O)(C(=O)CO)C[C@@H]3O[C@H]1C[C@H](N)[C@H](O)[C@H](C)O1 [doxorubicin]
anti-tumor effect (tumor growth, survival) (EL4, i.p., doxorubicin 50 μg/mouse daily dose): very limited effect | maximum survival period of the experimental animals (EL4, control group 35 days): 40 days
